Patent publication US7691858B2, “Kinase inhibitors and methods of use thereof” (TargeGen, Inc., priority 2006, dated 2010)
Entries after “also recorded” stand apart in the source; their conditions may differ.

Assays:
[1] = tested on: histamine-induced edema; assay: Miles assay, histamine as agonist; assay type: in vivo, Sprague-Dawley rats; settings: rats, Compound I pretreatment (1 mg/kg in FIG. 4)
Experimental: Sprague-Dawley rats were first injected IV with vehicle alone or test agent, followed by IV injection of Evans blue dye, followed by intradermal injections of saline and VEGF (200 ng/injection site) along both shaved flanks. […] The ability of test agents to influence edema induced by agonists other than VEGF was also tested. Compounds cited in this application inhibited edema formation induced using histamine as an agonist, for example, as shown below. The ability of test agent to influence vascular edema was tested as above, except that the ability to block edema was tested using either VEGF or histamine as the agonist (200 ng and 10 μg/injection site, respectively).

[2] = target: INK3 (Rattus norvegicus, UniProt P49187); assay: Kinase panel screen; assay type: biochemical; settings: Compound I and ATP 10 μM
Chain of INK3 (P49187 whole entry): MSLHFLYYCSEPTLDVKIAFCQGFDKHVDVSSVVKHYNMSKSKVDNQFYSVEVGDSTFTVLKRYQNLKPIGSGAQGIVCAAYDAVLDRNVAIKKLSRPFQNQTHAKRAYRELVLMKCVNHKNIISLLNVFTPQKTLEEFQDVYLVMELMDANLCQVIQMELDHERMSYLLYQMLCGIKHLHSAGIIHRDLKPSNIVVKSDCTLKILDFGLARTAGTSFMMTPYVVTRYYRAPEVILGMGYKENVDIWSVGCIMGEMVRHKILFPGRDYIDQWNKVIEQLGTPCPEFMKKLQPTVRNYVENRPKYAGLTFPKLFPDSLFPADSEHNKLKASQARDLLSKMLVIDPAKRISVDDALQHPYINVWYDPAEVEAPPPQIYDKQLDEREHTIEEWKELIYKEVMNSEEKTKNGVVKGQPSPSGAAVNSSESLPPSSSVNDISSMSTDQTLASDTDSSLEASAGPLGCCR

[3] = tested on: ERK phosphorylation; assay: VEGF-stimulated ERK phosphorylation in EC (Western blot); assay type: cell-based; settings: 10 uM Compound I, EC with VEGF
Experimental: FIG. 3. Inhibition of cell proliferation and signaling. (a) EC were cultured in the presence of vehicle (DMSO) or PI3K inhibitors (all at 10 μM); cell proliferation was assessed either 24 (open bar), 48 (grey bar), or 72 h (black bar) later.
Western blots: Cell cultures were rinsed twice with PBS and then lysed using RIPA buffer (100 mM Tris, 150 mM NaCl, 2 mM CaCl2, 1% deoxycholic acid, 1% Triton X-100, 0.1% SDS, pH 7.5) containing PMSF (2 mM), NaF (500 mM), aprotinin (10 μg/ml), leupeptin (10 μg/ml) and vanadate (1 mM). Tissue samples were placed in ice-cold RIPA buffer and processed to lysates using a FastPrep homogenizer (QBiogene, Carlsbad, Calif.). Lysates were centrifuged at 15,000×g followed by assay for total protein using the bicinchoninic acid method (Pierce Biotechnology, Rockford, Ill.), then loaded at equal protein concentration onto gels for SDS-PAGE electrophoresis and Western blotting. For phosphorylated VE-cadherin detection blots were probed with primary antibody (Santa Cruz Biotechnology, Santa Cruz, Calif.) followed by a chemiluminescent detection system (Pierce Biotechnology). The same techniques were used to detect both phosphorylated and total ERK and Akt, except that primary antibodies were supplied by Cell Signaling Technology (Beverly, Mass.) and BD Biosciences (San Jose, Calif.), respectively.

[4] = tested on: Akt phosphorylation; assay: VEGF-induced Akt phosphorylation in vivo (lung lysates, Western blot); design: species or system Sprague Dawley rats; settings: 0.5 and 5 mg/kg iv, VEGF 30, 60 or 120 min later
Experimental: FIG. 5. Inhibition of VEGF-induced Akt phosphorylation in vivo. […] Lungs were explanted 5 min after VEGF or saline injection, processed to tissue lysates, and lysates probed in Western blots to detect either phosphorylated Akt or total Akt (as a loading control).
The ability of compounds to impact PI3K activity in vivo was assessed by examining compound influence on vascular endothelial growth factor (VEGF)-induced Akt kinase phosphorylation (VEGF stimulation being an inducer of PI3K activity, and Akt kinase being a direct target of PI3K). Sprague Dawley rats were first injected intravenously (iv) with either vehicle or test compound at 5 mg/kg, and then 30, 60 or 120 min later injected iv with VEGF. Five minutes later, lungs were harvested and used to generate tissue lysates, which were then probed for phosphorylated Akt using Western blot technology; non-phosphorylated Akt was also probed in the same blots as a loading control. In other studies, test compounds was dosed at either 0.5 or 5 mg/kg, and VEGF delivered 60 min later, in order to assess the dose-response relationship of a compound's activities. […]

[5] = target: T1, TBK1 (Homo sapiens, UniProt Q9UHD2); assay: Kinase panel screen; assay type: biochemical; settings: Compound I and ATP 10 μM
T1 construct: purchased Upstate USA or Invitrogen (contract screening service)
T1 sequence (Q9UHD2 whole entry): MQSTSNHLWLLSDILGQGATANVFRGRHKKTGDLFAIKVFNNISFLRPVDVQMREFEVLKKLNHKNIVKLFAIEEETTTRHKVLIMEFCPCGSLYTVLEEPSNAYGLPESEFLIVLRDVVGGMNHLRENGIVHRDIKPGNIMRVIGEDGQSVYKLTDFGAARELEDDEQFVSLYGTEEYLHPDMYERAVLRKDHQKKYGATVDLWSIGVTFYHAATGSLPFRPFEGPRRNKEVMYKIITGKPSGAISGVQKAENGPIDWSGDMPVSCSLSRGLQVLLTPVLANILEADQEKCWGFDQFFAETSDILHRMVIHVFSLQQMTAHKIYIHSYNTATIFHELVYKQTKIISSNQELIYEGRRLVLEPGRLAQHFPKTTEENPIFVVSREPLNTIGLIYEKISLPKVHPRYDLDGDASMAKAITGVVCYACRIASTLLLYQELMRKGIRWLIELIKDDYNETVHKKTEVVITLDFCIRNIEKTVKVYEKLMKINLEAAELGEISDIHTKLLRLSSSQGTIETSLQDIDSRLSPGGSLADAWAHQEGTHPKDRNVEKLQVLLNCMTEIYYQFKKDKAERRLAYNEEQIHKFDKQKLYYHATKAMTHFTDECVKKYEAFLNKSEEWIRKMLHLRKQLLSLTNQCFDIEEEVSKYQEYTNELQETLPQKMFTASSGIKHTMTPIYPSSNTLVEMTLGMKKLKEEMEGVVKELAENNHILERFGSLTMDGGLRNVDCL

[6] = tested on: PAF-induced inflammatory edema; assay: Rat hindpaw inflammation model, PAF; assay type: in vivo, Sprague Dawley rats
Experimental: FIG. 4. Inhibition of edema and inflammation. (a, b) Rats were injected i.v. with Evans blue dye and then intradermally with saline, VEGF or histamine. […] (c-f) Rat hindpaws were injected with either PAF (c & d) or dextran (e & f), and three hours later processed as H&E-stained paraffin sections. […] Images were taken of paws representing the mean group value for volume as presented in Results (original magnification 200×).
The Miles assay models a primarily endothelial-based response that develops rapidly (within minutes). As a comparator, we next employed a rodent hindpaw model where more complex inflammatory reactions develop over several hours. Agonists included PAF, a GPCR ligand that activates both EC and leukocytes, and dextran, a phagocytic stimulus for mast cell and leukocyte activation. […] Paw volume (a more quantitative measure of edema and inflammation) was reduced by 62% and 78% in response to PAF or dextran, respectively (n=8, P<0.001). Finally, to correlate these in vivo responses with the molecular target of interest, we monitored PI3K pathway signaling through Western blot analyses of Akt phosphorylation (a PI3K-mediated event).
In order to determine the influence of compounds on the development of inflammation, Sprague Dawley rats were first injected intravenously with either vehicle or test compound at 5 mg/kg, and then 30 min later either PBS (as a control), dextran or platelet activating factor (PAF) was injected into the plantar surface of the hindlimbs, dextran and PAF being known to induce localized inflammatory responses marked by edema. Three hours later, paw dimensions were measured using a caliper and paw volumes calculated; data are shown as the increase in paw volume (mm^3) as compared to controls (paws injected with PBS).

[7] = target: T2, MSK1 (Homo sapiens, UniProt O75582); assay: Kinase panel screen; assay type: biochemical; settings: Compound I and ATP 10 μM
T2 construct: purchased Upstate USA or Invitrogen (contract screening service)
T2 sequence (O75582 whole entry): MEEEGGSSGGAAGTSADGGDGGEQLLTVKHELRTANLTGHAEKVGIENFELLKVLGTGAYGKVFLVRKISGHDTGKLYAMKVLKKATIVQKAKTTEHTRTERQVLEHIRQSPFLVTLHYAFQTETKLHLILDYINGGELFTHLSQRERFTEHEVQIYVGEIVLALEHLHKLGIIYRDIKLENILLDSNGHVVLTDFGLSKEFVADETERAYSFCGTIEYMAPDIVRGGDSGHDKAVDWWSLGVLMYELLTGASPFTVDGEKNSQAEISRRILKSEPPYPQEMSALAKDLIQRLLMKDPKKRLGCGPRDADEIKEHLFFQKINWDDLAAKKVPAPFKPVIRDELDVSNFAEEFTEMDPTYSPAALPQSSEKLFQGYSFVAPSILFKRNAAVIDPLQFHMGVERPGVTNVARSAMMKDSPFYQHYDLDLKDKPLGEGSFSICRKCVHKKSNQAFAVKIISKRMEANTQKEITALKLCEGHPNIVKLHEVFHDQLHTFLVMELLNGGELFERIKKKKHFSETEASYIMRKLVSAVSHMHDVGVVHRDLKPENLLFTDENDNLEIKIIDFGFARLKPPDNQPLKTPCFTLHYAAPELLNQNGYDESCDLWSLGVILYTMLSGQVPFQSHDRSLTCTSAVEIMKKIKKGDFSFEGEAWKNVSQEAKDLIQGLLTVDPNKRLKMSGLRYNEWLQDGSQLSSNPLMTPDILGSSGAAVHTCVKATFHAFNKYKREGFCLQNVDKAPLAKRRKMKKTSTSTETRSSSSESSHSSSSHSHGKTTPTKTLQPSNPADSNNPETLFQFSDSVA

Nc1nc(N)c2nc(-c3cccc(O)c3)c(-c3cccc(O)c3)nc2n1 [Compound I, 6,7-bis-(3-hydroxyphenyl)-pteridine-2,4-diamine]
histamine-induced permeability / edema formation [1]: blocked; also recorded: reduced edema formation | Percent Control, INK3(r) [2]: 64% | VEGF-stimulated ERK phosphorylation [3]: no influence | VEGF-induced Akt phosphorylation in lung lysates [4]: blocked | VEGF-induced Akt phosphorylation in lung lysates ([4]; listed as 6,7-bis-(3-hydroxyphenyl)-pteridine-2,4-diamine): Inhibition | Percent Control, TBK1 [5]: 89% | Increase in Paw Volume vs. Controls ([6]; 5 mg/kg iv 30 min before, 3 hours, mean±SEM N=6, vehicle 71 ± 9): 27 ± 4 mm^3 | edema and leukocyte infiltration (histology) ([6]; 5 mg/kg pretreatment, three hours): strongly antagonized; also recorded: blocked | reduction of paw volume ([6]; n=8): 62% | Percent Control, MSK1 [7]: 92%
